The values below come from publication PMC9029893 (International Journal of Molecular Sciences, 2022).

What is called IC50 is the concentration that inhibits the measured activity by half.

The test system of series [1] is HUVEC cells. The series is described as follows: WST-1 cell viability assay, HUVEC. Conditions: Homo sapiens, HUVEC, 24 h, read-out: Viability-IC50, HUVEC cells. For orientation: Tetrazolium dyes change colour on reduction, which living cells bring about.
Method: (§1) HUVEC and AoSMC viability were tested using the WST-1 cell viability assay (Takara Bio Europe, Saint-Germain-en-Laye, France). […] Briefly, HUVEC and AoSMC were seeded at densities of 7500 and 5000 cells per well on 96-well plates. The cells were cultivated for up to 24 h to achieve 70% confluency, and subsequently treated with tested compounds diluted in medium (1 + 9; v = 100 μL) or pure medium (control). The plates were incubated at 37 °C (5% CO2) for the next 24 h. Then, the cells were rinsed with 100 μL culture medium, and WST-1 reagent diluted in medium (100 μL) was added; the plates were then incubated again (37 °C, 5% CO2) for another 90 min. The absorbance was measured at 450 nm (iMARK, Bio-Rad, Hercules, CA, USA). The experiments were performed in multiplicate (n = 8) and the results were presented as mean ± SD. The cell viability was expressed as a percentage of the control samples, which constituted 100% viability. […] The variability coefficient of the method was estimated (CV(HUVEC) = 8.94%, n = 8; CV(AoSMC) = 5.84%, n = 10).
The test system of series [2] is HUVEC cells. The series is described as follows: HUVEC integrity in RTCA-DP system (normalized cell index). The series is classed as cell-based, human. As for the experimental part:
The effects of sulfonamides 1–8 on the integrity and barrier properties of HUVEC were examined in real-time using a cell electric impedance monitoring system (Real-Time Cell Analyzer; Roche & ACEA Biosciences, Santa Clara, CA, USA), which is based on tracking electrical impedance signals. Any changes in cell status, adhesion, and morphology are expressed by parameter Cell Index (CI). The experimental protocol has been described previously. Briefly, the cells were seeded at a density of 15,000 cells per well on E-16 plates (Roche & ACEA Biosciences, Santa Clara, CA, USA), and cultured until the cells achieved plateau phase. Then, the medium was discarded from each well, and the solutions of the test compounds dissolved in cell culturing medium (100 μL) or pure medium (100 μL, control) were added. The measurements were then carried out for 48 h. The results are presented as mean ± SD of ‘normalized cell index’ (nCI), which is calculated by the division of a CI value at a certain time point by the CI value at a reference time point. The experiments were conducted in multiplicate (n = 4–6). The method was validated and the coefficient of variability (CV) was calculated as 9.17%–15.2%, depending on the measured time point (n = 6).

Series [3] concerns HUVEC cells. The series is described as follows: Glucose utilization assay (2-NBDG uptake). The series is classed as cell-based, human. Conditions: 24 h, then insulin and 2-NBDG. The protocol:
HUVEC were seeded at a density of 20,000 cells per well in 48-well plates, and were cultured in standard conditions for 24 h (medium EGM-2; volume 0.2 mL). Following this, compounds 1–8 were added at concentrations of 0.1 and 0.3 mM, and the HUVECs were incubated for another 24 h. Cells treated with ᴅ-glucose (final concentration in a sample 0.1 mM) were used as positive controls. On the following day, the cells were rinsed with PBS (Biomed Lublin, Lublin, Poland) and cultured for two hours in glucose-free DMEM medium supplemented with 1% BSA (bovine serum albumin, Sigma, St. Louis, MO, USA). Then, the cells were co-treated with insulin (final concentration 0.0001 mM) for 30 min. Afterwards, the medium was discarded and the cells were treated with 2-NBDG (final concentration 0.05 mM) for 30 min, followed by removal of the solutions of each well. The cells were washed twice with 100 µL PBS, and lysed using 1% Triton X-100 solution in PBS. The fluorescence was recorded using a microplate reader (Biotek, Instruments, Winooski, VT, USA) at 480/530 nm.
The concentration of intracellular 2-NBDG was calculated using a calibration curve obtained using 2-NBDG at concentrations ranging from 0.0001 to 0.025 mM in lysis buffer. The results are presented as mean ± SD, n = 4–6. The coefficient of variation for the assay was calculated (CV = 2.2%, n = 8).

The test system of series [4] is AoSMC cells. The series is described as follows: WST-1 cell viability assay, AoSMC. Conditions: Homo sapiens, 24 h, read-out: Viability-IC50, AoSMC cells.
Method: as §1
Series [5] has as its system tissue plasminogen activator (t-PA) release from HUVEC. The settings on record: cited from earlier work.
Series [6] deals with HUVEC cells. The settings on record: cited from earlier work.
Series [7] concerns clot formation and fibrinolysis in human citrate plasma. The settings on record: over the entire concentration range; cited from earlier work.
Series [8] deals with AoSMC cells. Conditions: cited from earlier work.
In series [9] the test system is HUVEC cells. The series is described as follows: HUVEC migration, wound-healing assay (JuLI Stage). The series is classed as cell-based, human. The protocol:
The effects of compounds 1–5 on HUVEC migration were determined using the JuLI™ Stage system (NanoEntek, Seoul, Korea): a real-time cell history recorder allowing for live cell imaging and analysis. The procedure for the migration experiments has been published elsewhere in more detail. Concisely, HUVECs were seeded at a density of 10,000 cells per well on 96-well plates and incubated at standard conditions for 24 h. Following this, a wound was made with a scratcher (NanoEntek, Seoul, Korea). The cells were then rinsed with 100 μL of fresh EGM2 medium, and treated with biguanides 1–5 at the concentrations of 0.3 and 1.0 mM. The cells were incubated and monitored continuously every 10 min for 36 h at 37 °C, 5% CO2. Analysis of obtained images of cell migration, and measurements of the width of the scratch area were performed using dedicated software (NanoEntek, Seoul, Korea). The results were presented as mean ± SD, n = 4–8. The CV for the method was estimated as 14.2–24.4%, depending on the time point (n = 8).

For series [10], the system named is HUVEC cells. Conditions: 0.006–1.5 mM; cited from earlier work.

Consider `CN(C)C(=N)N=C(N)NS(=O)(=O)c1ccc(C#N)cc1` [Compound 8], for which the IC50 in series [1] came out at 791 ± 130 µM; in series [4], 1570 ± 140 µM. In addition, the “normalized Cell Index (nCI)” value in series [2] (0.3 mM, 3 hours) is 0.312 ± 0.087; in series [2] (0.3 mM, 6 hours), 0.461 ± 0.015; in [2] (0.3 mM, 12 hours) it was 0.416 ± 0.062; in [2] (0.3 mM, 24 hours), 0.321 ± 0.038; in [2] (0.3 mM, 36 hours), 0.198 ± 0.055; in series [2] (1.0 mM, 3 hours) it was 0.006 ± 0.004. The “normalized Cell Index (nCI)” value in series [2] (1.0 mM, 6 hours) came to 0.029 ± 0.006; in [2] (1.0 mM, 12 hours), 0.021 ± 0.004; in [2] (1.0 mM, 24 hours) it was 0.001 ± 0.001; in [2] (1.0 mM, 36 hours), 0.001 ± 0.001. Besides, the “Glucose uptake (intracellular 2-NBDG)” value in [3] (0.1 mM) was found to be 0.0131 ± 0.0009 mM; in [3] (0.3 mM), 0.0138 ± 0.0015 mM.
Regarding `OC[C@H]1OC(O)[C@H](O)[C@@H](O)[C@@H]1O` (stereo partly drawn) [D-glucose, reference compound], the “Glucose uptake (intracellular 2-NBDG)” value in series [3] (0.1 mM) is given as 0.0014 ± 0.0001 mM.
Take `CN(C)C(=N)N=C(N)N` [Metformin, dimethyl biguanide, reference compound]: the “effect on t-PA release” value in series [5] is “significantly elevate”. Moreover, the “effect on viability and morphology of HUVEC cells” value in series [6] is listed as “not affect”. In series [7], the “effect on overall potential of clot formation and fibrinolysis (CLAUC)” value was “did not affect”. The entries for the “Glucose uptake (intracellular 2-NBDG)” value in [3] (0.1 mM) and in series [3] (0.3 mM) were 0.0146 ± 0.0009 mM and 0.0165 ± 0.0006 mM, respectively. The “effect on viability and morphology of AoSMC cells” value in [8] is given as “not affect”. In addition, the wound width in series [9] (0.3 mM, 6 hours) turned out to be 570.1 ± 119.9 µm; in series [9] (0.3 mM, 12 hours) it was 467.8 ± 106.5 µm; in series [9] (0.3 mM, 18 hours), 412.1 ± 121.8 µm; in series [9] (0.3 mM, 24 hours), 405.0 ± 120.7 µm; in series [9] (0.3 mM, Start), 728.6 ± 62.5 µm; in series [9] (1.0 mM, 6 hours) it was 565.4 ± 31.5 µm. Also, the wound width in series [9] (1.0 mM, 12 hours) was found to be 495.7 ± 20.0 µm; in [9] (1.0 mM, 18 hours), 482.7 ± 10.0 µm; in series [9] (1.0 mM, 24 hours), 419.8 ± 42.3 µm; in series [9] (1.0 mM, Start), 670.4 ± 29.2 µm. Also, the “effect on integrity and adherence of HUVEC cells” value in series [10] was “not found to affect”.
Consider `CN(C)C(=N)N=C(N)NS(=O)(=O)c1ccccc1C#N` [Compound 6], for which the IC50 in series [1] stood at 461 ± 130 µM; in series [4], 1680 ± 210 µM. Further, the “normalized Cell Index (nCI)” value was found to be 0.317 ± 0.050 in [2] (0.3 mM, 3 hours); 0.424 ± 0.053 in [2] (0.3 mM, 6 hours); 0.388 ± 0.07 in series [2] (0.3 mM, 12 hours); 0.280 ± 0.018 in series [2] (0.3 mM, 24 hours); 0.111 ± 0.026 in [2] (0.3 mM, 36 hours); 0.010 ± 0.003 in series [2] (1.0 mM, 3 hours). The “normalized Cell Index (nCI)” value came to 0.016 ± 0.005 in [2] (1.0 mM, 6 hours); 0.019 ± 0.005 in series [2] (1.0 mM, 12 hours); 0.013 ± 0.003 in series [2] (1.0 mM, 24 hours); 0.009 ± 0.003 in [2] (1.0 mM, 36 hours). Also, the “Glucose uptake (intracellular 2-NBDG)” value in series [3] (0.1 mM) is recorded as 0.0128 ± 0.0007 mM; in series [3] (0.3 mM), 0.0129 ± 0.0007 mM.
On to `CN(C)C(=N)N=C(N)NS(=O)(=O)c1cccc(C#N)c1` [Compound 7], for which the IC50 in series [1] turned out to be 304 ± 120 µM; in series [4], 1890 ± 160 µM. Besides, the “normalized Cell Index (nCI)” value in series [2] (0.3 mM, 3 hours) is recorded as 0.283 ± 0.050; in [2] (0.3 mM, 6 hours), 0.367 ± 0.027; in series [2] (0.3 mM, 12 hours), 0.333 ± 0.030; in [2] (0.3 mM, 24 hours) it was 0.255 ± 0.26; in series [2] (0.3 mM, 36 hours), 0.094 ± 0.014; in series [2] (1.0 mM, 3 hours) it was 0.013 ± 0.004. The “normalized Cell Index (nCI)” value came to 0.018 ± 0.001 in [2] (1.0 mM, 6 hours); 0.020 ± 0.001 in [2] (1.0 mM, 12 hours); 0.016 ± 0.002 in [2] (1.0 mM, 24 hours); 0.013 ± 0.003 in series [2] (1.0 mM, 36 hours). For the same compound, the “Glucose uptake (intracellular 2-NBDG)” value in series [3] (0.1 mM) was determined as 0.0131 ± 0.0013 mM; in series [3] (0.3 mM) it was 0.0139 ± 0.001 mM.
